Test systems include SF-539; NCI-H23; MDA-MB-435; M14; SK-MEL-5; K562; HT-29; EKVX; PC-3; HL-60; HCT-15; ACHN; NCI/ADR-RES; SW-620; SF-295; COLO 205; RXF 393; HCC 2998; A549.
Common to all, as to experiment: DTP human tumour cell line panel, 48 h

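Following 48 hours of exposure in 96-well plates, responses at five concentrations were used to interpolate endpoints linearly. GI50 marks 50% less growth.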 The source made the active and inactive calls. Cut-off read from the data, not from the text of the source: active = GI50 up to about 1.1 µM and inactive = higher.

In the case of `[O-][s+]1c2c(Cc3ccccc3)c(Cc3ccccc3)c1CCc1cccc(c1)CC2`, the GI50 (in general, the concentration giving 50% growth inhibition) in the experiment on SF-539 is 18.7 µM (inactive); in the experiment on NCI-H23 it was 12.7 µM (inactive); in the experiment on MDA-MB-435, 12.9 µM (inactive); in the experiment on M14, 14.7 µM (inactive); with SK-MEL-5 it was 14.9 µM (inactive); in the experiment with K562, 11.2 µM (inactive). Further, the GI50 with HT-29 was 11.9 µM (inactive); with EKVX, 13.2 µM (inactive); in the experiment with PC-3, 13.3 µM (inactive); in the experiment with HL-60 it was 16.9 µM (inactive); in the experiment with HCT-15, 12.9 µM; in the experiment on ACHN, 16.7 µM (inactive). Also, the GI50 was 14.4 µM (inactive) in the experiment with NCI/ADR-RES; 24.5 µM (inactive) in the experiment with SW-620; 13.2 µM (inactive) with SF-295; 17.5 µM (inactive) with COLO 205; 3.86 µM (inactive) in the experiment on RXF 393; 14.1 µM (inactive) in the experiment on HCC 2998. Moreover, the GI50 in the experiment on A549 was 13.9 µM (inactive).
Turning to `COc1cccc(NC(=O)CC(=O)N2N=C(C)C(/N=N/c3ccc(S(=O)(=O)CCOS(=O)(=O)O)cc3)C2=O)c1` (centres undefined), the GI50 with SF-539 is 12.5 µM (inactive); in the experiment with NCI-H23, 4.69 µM (inactive); in the experiment on MDA-MB-435 it was 2.65 µM (inactive); in the experiment on M14, 5.83 µM (inactive); in the experiment on SK-MEL-5, 3.52 µM (inactive); with K562, 2.18 µM (inactive). For the same compound, the GI50 in the experiment with HT-29 is 3.76 µM (inactive); with EKVX it was 17.7 µM (inactive); in the experiment with PC-3, 3.85 µM (inactive); with HL-60, 1.66 µM (inactive); with HCT-15 it was 3.42 µM; in the experiment with ACHN, 3.99 µM (inactive). Moreover, the GI50 is 4.2 µM (inactive) with NCI/ADR-RES; 2.99 µM (inactive) with SW-620; 15.3 µM (inactive) with SF-295; 7.1 µM (inactive) in the experiment with COLO 205; 4.06 µM (inactive) in the experiment on RXF 393; 15.5 µM (inactive) with HCC 2998. For the same compound, in the experiment on A549, the GI50 was 18.9 µM (inactive).
`O=C(Cc1ccc(Cl)cc1)Nc1ccc2oc(-c3ccccc3)nc2c1`: the GI50 is 35.2 µM (inactive) in the experiment on SF-539; > 100 µM (inactive) in the experiment with NCI-H23; > 100 µM (inactive) with MDA-MB-435; > 100 µM (inactive) in the experiment with M14; > 100 µM (inactive) in the experiment on SK-MEL-5; > 100 µM (inactive) with K562. The GI50 in the experiment on HT-29 is > 100 µM (inactive); in the experiment with EKVX it was 30.8 µM (inactive); in the experiment with PC-3, > 100 µM (inactive); with HL-60, > 100 µM (inactive); in the experiment on HCT-15, greater than 100 µM; in the experiment on ACHN it was > 100 µM (inactive). The GI50 in the experiment on NCI/ADR-RES was 57.8 µM (inactive); in the experiment on SW-620, > 100 µM (inactive); in the experiment with SF-295, > 100 µM (inactive); with COLO 205 it was > 100 µM (inactive); in the experiment on RXF 393, > 100 µM (inactive); in the experiment with HCC 2998 it was > 100 µM (inactive). Also, the GI50 in the experiment on A549 is > 100 µM (inactive).
`CCOc1ccc(/N=N/c2ccc(-c3ccc(/N=N/c4c(O)ccc5cc(S(=O)(=O)O)cc(S(=O)(=O)O)c45)cc3)cc2)cc1`: the GI50 in the experiment with SF-539, in the experiment on NCI-H23, with MDA-MB-435, with M14, with SK-MEL-5 and in the experiment with K562 was > 100 µM (inactive) throughout. The GI50 with HT-29 is > 100 µM (inactive); in the experiment on EKVX, > 100 µM (inactive); with PC-3, > 100 µM (inactive); with HL-60, > 100 µM (inactive); in the experiment with HCT-15 it was 86.5 µM; with ACHN, > 100 µM (inactive). The GI50 in the experiment with NCI/ADR-RES, in the experiment with SW-620, with SF-295, in the experiment with COLO 205, in the experiment on RXF 393 and in the experiment with HCC 2998 was > 100 µM (inactive) each time. Moreover, in the experiment with A549, the GI50 was > 100 µM (inactive).
Turning to `CCOC(=O)C(NCc1ccccc1)(NC(=O)c1ccccc1)C(F)(F)F` (centres undefined), the GI50 in the experiment on SF-539 is > 100 µM (inactive); in the experiment on NCI-H23 it was > 100 µM (inactive); in the experiment with MDA-MB-435 it was > 100 µM (inactive); in the experiment on M14, > 100 µM (inactive); with SK-MEL-5 it was 84.9 µM (inactive); in the experiment on K562, 60.1 µM (inactive). For the same compound, the GI50 with HT-29 is > 100 µM (inactive); in the experiment with EKVX, 82.4 µM (inactive); with PC-3 it was > 100 µM (inactive); with HL-60, 29 µM (inactive); in the experiment with HCT-15, 78.3 µM; with ACHN, > 100 µM (inactive). Moreover, the GI50 with NCI/ADR-RES is 43.3 µM (inactive); in the experiment with SW-620, 43.6 µM (inactive); with SF-295, > 100 µM (inactive); with COLO 205 it was > 100 µM (inactive); with RXF 393, 64.7 µM (inactive); in the experiment with HCC 2998, > 100 µM (inactive). In addition, the GI50 in the experiment with A549 is > 100 µM (inactive).
Regarding `N=C(N)SC1c2ccccc2-c2cc([N+](=O)[O-])ccc21` (centres undefined), the GI50 with SF-539 was 3.96 µM (inactive); in the experiment on NCI-H23, 4.84 µM (inactive); in the experiment with MDA-MB-435 it was 1.92 µM (inactive); in the experiment with M14 it was 5.15 µM (inactive); in the experiment on SK-MEL-5, 3.08 µM (inactive); with K562, 3.89 µM (inactive). In addition, the GI50 in the experiment with HT-29 was 3.66 µM (inactive); with EKVX, 10.4 µM (inactive); in the experiment on PC-3 it was 3.78 µM (inactive); with HL-60, 2.61 µM (inactive); with HCT-15, 4.48 µM; with ACHN it was 6.53 µM (inactive). Further, the GI50 in the experiment on NCI/ADR-RES was 3.01 µM (inactive); in the experiment with SW-620, 3.15 µM (inactive); in the experiment with SF-295, 4.01 µM (inactive); with COLO 205 it was 2.94 µM (inactive); with RXF 393, 3.5 µM (inactive); in the experiment with HCC 2998 it was 2.59 µM (inactive). Also, in the experiment with A549, the GI50 is 4.33 µM (inactive).
`[N-]=[N+]=NC1=C(c2ccccc2)C(=O)c2cccc3cccc1c23`: the GI50 is 16.1 µM (inactive) in the experiment on SF-539; 24.9 µM (inactive) with NCI-H23; 68.4 µM (inactive) in the experiment with MDA-MB-435; 8.3 µM (inactive) with M14; 2.77 µM (inactive) with SK-MEL-5; 7.13 µM (inactive) with K562. Further, the GI50 in the experiment on HT-29 was 6.56 µM (inactive); in the experiment with PC-3, 8.26 µM (inactive); with HL-60, 16.6 µM (inactive); in the experiment with HCT-15, 17.8 µM; in the experiment with ACHN it was 6.01 µM (inactive); in the experiment with NCI/ADR-RES it was 45.5 µM (inactive). The GI50 is 29.9 µM (inactive) in the experiment on SW-620; 11.2 µM (inactive) in the experiment with SF-295; > 100 µM (inactive) with COLO 205; 19.7 µM (inactive) with RXF 393; 11.4 µM (inactive) in the experiment on HCC 2998; 11.9 µM (inactive) with A549.
In the case of `Nc1nc2c(c(-c3cccc(Cl)c3)n1)COC/C2=C\c1cccc(Cl)c1`, the GI50 in the experiment on SF-539, in the experiment on NCI-H23, in the experiment on MDA-MB-435, in the experiment with M14, with SK-MEL-5 and in the experiment with K562 was > 100 µM (inactive) in each case. Further, the GI50 is > 100 µM (inactive) with HT-29; > 100 µM (inactive) with EKVX; > 100 µM (inactive) in the experiment with PC-3; > 100 µM (inactive) in the experiment on HL-60; greater than 100 µM in the experiment on HCT-15; > 100 µM (inactive) with ACHN. For the same compound, the GI50 with NCI/ADR-RES was > 100 µM (inactive); in the experiment with SW-620 it was > 100 µM (inactive); with SF-295 it was > 100 µM (inactive); in the experiment with COLO 205, > 100 µM (inactive); with RXF 393, > 100 µM (inactive); with HCC 2998 it was 56.8 µM (inactive).
With `Sc1nnc(-c2ccccc2Nc2ccccc2-c2nnc(S)n2-c2ccccc2)n1-c1ccccc1`, the GI50 in the experiment with SF-539 is 28.8 µM (inactive); in the experiment with NCI-H23, 34.4 µM (inactive); with MDA-MB-435, 22.9 µM (inactive); in the experiment with M14, 40.8 µM (inactive); with SK-MEL-5 it was 23.7 µM (inactive); with K562, 52.7 µM (inactive). In addition, the GI50 with HT-29 was 35.5 µM (inactive); with EKVX, 32.4 µM (inactive); in the experiment on PC-3, 60.3 µM (inactive); in the experiment with HL-60 it was 22.8 µM (inactive); in the experiment with HCT-15, 34.3 µM; with ACHN it was 38.3 µM (inactive). For the same compound, the GI50 with NCI/ADR-RES is 84.1 µM (inactive); in the experiment with SW-620, 26.9 µM (inactive); in the experiment on SF-295, 43.1 µM (inactive); with COLO 205 it was 34.8 µM (inactive); in the experiment on RXF 393 it was 35.6 µM (inactive); in the experiment on HCC 2998, 36.6 µM (inactive).
With `C=CCO[C@]1(CC=C)C(=O)C(=O)OC1C1COC(C)(C)O1` (some centres undefined), the GI50 with SF-539 was > 100 µM (inactive); with NCI-H23, 53.2 µM (inactive); with MDA-MB-435 it was 36 µM (inactive); in the experiment with SK-MEL-5, 36.1 µM (inactive); in the experiment on K562, 27.4 µM (inactive); in the experiment with HT-29 it was 19.8 µM (inactive). For the same compound, the GI50 is > 100 µM (inactive) in the experiment on EKVX; 44.6 µM (inactive) in the experiment with PC-3; > 10 µM (inactive) with HL-60; 21.1 µM with HCT-15; 16.6 µM (inactive) in the experiment on ACHN; 37.4 µM (inactive) in the experiment with NCI/ADR-RES. Besides, the GI50 in the experiment with SW-620 is 18.6 µM (inactive); in the experiment on SF-295 it was > 100 µM (inactive); in the experiment with COLO 205, 20.5 µM (inactive); with RXF 393, 19.8 µM (inactive); with HCC 2998, > 100 µM (inactive); in the experiment on A549, > 100 µM (inactive).
On to `c1ccc(-c2nc3ccccc3n3nnnc23)cc1`, for which the GI50 in the experiment with SF-539, in the experiment with NCI-H23, with MDA-MB-435, in the experiment with M14, in the experiment on SK-MEL-5 and in the experiment on K562 was > 100 µM (inactive) in each case. Further, the GI50 in the experiment with HT-29 was > 100 µM (inactive); with EKVX, 11.5 µM (inactive); in the experiment on PC-3, > 100 µM (inactive); in the experiment with HL-60, > 100 µM (inactive); with HCT-15, greater than 100 µM; in the experiment with ACHN, > 100 µM (inactive). The GI50 with NCI/ADR-RES is > 100 µM (inactive); in the experiment on SW-620, > 100 µM (inactive); with COLO 205, > 100 µM (inactive); in the experiment with RXF 393, 52.1 µM (inactive); in the experiment on HCC 2998 it was > 100 µM (inactive); in the experiment on A549, > 100 µM (inactive).
